Laboratory results reported in patent US10618901B2 (GlaxoSmithKline Intellectual Property Development Limited, priority 2014, dated 2020).

These molecules were tested against T1, 6HIS-Tev-LRRK2 (1326-2527) (Homo sapiens, UniProt Q5S007) (assay: Recombinant LRRK2 enzyme peptide substrate TR-FRET assay). Conditions: 60 nM LRRK2 enzyme; 10 uM ATP; read-out: pIC50 in the recombinant LRRK2 enzyme peptide substrate TR-FRET assay (converted).
T1 construct: A LRRK2 cDNA encoding residues 1326-2527 was received from Dundee University; made in house; host or cells: Spodoptera frugiperda Sf9 (baculovirus, pFB-HTb)
T1 sequence (Q5S007 1326-2527): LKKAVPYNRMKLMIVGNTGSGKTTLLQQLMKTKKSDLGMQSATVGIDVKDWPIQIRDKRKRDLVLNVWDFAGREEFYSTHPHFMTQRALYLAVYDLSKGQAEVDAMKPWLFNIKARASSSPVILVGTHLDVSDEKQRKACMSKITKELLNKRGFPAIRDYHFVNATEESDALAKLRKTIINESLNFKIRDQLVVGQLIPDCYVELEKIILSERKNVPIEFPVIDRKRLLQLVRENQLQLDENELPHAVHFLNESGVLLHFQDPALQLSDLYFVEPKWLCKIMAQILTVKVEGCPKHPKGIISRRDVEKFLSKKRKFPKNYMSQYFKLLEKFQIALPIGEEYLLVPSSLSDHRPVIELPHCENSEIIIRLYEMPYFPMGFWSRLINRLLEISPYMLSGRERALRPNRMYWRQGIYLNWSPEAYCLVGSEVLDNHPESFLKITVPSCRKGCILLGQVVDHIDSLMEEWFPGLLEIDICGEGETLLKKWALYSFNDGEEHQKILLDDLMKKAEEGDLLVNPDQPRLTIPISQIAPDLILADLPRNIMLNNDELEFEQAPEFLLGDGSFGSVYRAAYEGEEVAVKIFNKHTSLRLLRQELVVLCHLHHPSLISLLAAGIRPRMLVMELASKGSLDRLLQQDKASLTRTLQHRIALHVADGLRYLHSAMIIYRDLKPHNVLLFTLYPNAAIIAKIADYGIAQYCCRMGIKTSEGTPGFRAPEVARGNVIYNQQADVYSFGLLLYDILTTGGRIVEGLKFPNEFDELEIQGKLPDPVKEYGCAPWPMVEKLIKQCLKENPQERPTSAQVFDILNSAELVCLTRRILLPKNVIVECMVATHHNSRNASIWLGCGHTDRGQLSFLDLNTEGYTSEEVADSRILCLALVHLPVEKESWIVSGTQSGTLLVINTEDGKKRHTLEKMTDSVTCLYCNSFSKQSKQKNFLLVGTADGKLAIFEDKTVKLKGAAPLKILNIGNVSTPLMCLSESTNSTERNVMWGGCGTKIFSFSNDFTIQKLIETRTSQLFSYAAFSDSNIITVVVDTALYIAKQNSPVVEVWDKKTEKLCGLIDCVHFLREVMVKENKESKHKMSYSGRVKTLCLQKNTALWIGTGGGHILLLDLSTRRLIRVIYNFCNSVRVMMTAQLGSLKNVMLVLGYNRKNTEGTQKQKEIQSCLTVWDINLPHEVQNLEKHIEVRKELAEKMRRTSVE
Assay type: biochemical
Method: A LRRK2 cDNA encoding residues 1326-2527 was received from Dundee University (described in M. Jaleel et al., 2007, Biochem J, 405: 407-417). This gene fragment was subcloned into pFB-HTb (Invitrogen) using BamHI and NotI restriction sites. The LRRK2 plasmid was recombined into the baculovirus genome according to the BAC-to-BAC protocol described by Invitrogen. Transfection into Spodoptera frugiperda (Sf9) insect cells was performed using Cellfectin (Invitrogen), according to the manufacturer's protocol to generate P1 and P2 baculovirus stocks.
Sf9 cells were grown in HyClone SFX (Thermo Scientific) growth media at 27° C., 80 rpm in shake flask until of a sufficient volume to inoculate a bioreactor. The cells were grown in a 20 liter working volume Wave bioreactor (GE Healthcare) at 27° C., 50% dissolved oxygen and an agitation rate 22 rocks per minute, 10 degree rock angle, 200 ml/min air with a cell concentration of approximately 6×e6 cells/ml. The cells were infected with P2 Baculovirus at a multiplicity of infection (MOI) of 3. The cultivation was continued for a 48 hour expression phase. The infected cells were removed from the growth media by centrifugation at 2500 g using a Sorvall RC 3C Plus centrifuge at 2500 g for 20 minutes. The cell pellet was immediately frozen and subsequently supplied for purification.
A 260 g pellet was allowed to thaw in a water bath at 27° C. with 800 ml lysis buffer/buffer A (50 mm Tris-HCl pH 8.5, 300 mM NaCl, 1 mm DTT, 10% glycerol, 1 ml/L calbiochem complete protease inhibitor cocktail and benzonase (50 ul/800 ml)) before being dounce homogenised on ice using 20 strokes per 100 ml. The suspension was packed in ice and sonicated at 50% amplitude for 3 min 10 sec on/off using a ¾″ probe. The suspension was then centrifuged at 100,000 g for 90 min, at 4° C.
The lysate (700 ml) was decanted from the insoluble pellet and contacted for 3 h at 4 C with 10 ml His bind Ni NTA resin by end over end mixing. The resin was recovered by centrifugation, 3000 g, 5 min at 4 C, and packed in an XK16 column. The column was then washed with 10 column volumes buffer A, 10 column volumes buffer B (buffer A+1M NaCl) and 10 column volumes buffer C (buffer A+20 mM imidazole). The column was then eluted with 15 column volumes buffer D (buffer A+300 mM imidazole) collecting 2 ml fractions. All washes and elution were conducted at 4 ml/min.
Fractions identified by SDS-PAGE as containing protein of interest were pooled and loaded directly onto a 320 ml SEC Superdex 200 pg column that was pre-equilibrated with buffer E (50 mM Tris-HCl pH 8.5, 300 mM NaCl, 10% glycerol, 1 mM DTT). The column was loaded and eluted with 1.2 column volumes buffer E at 2 ml/min collecting 2 ml fractions. Fractions identified by SDS-PAGE as containing protein of interest were tested for activity.
Production of Biotin-Loner LRRKtide
The peptide (biotin-[…]-OH) was assembled at a […] scale using FMOC solid phase peptide synthesis on an ACT 357 MPS automated peptide synthesizer. The resulting crude peptide was cleaved from the resin using a 95:2.5:2.5 mix of trifluoroacetic acid: triisopropylsilane: water. The crude cleaved peptide was purified by reverse phase HPLC, eluting with a 5-35% gradient of 0.1% trifluoroacetic acid/acetonitrile in 0.1% trifluoroacetic acid/water.
Recombinant LRRK2 Enzyme Peptide Substrate TR-FRET Assay
This assay for LRRK2 inhibition is based on the detection of phosphorylation of the peptide ‘longer LRRKtide’ (biotin-[…]-OH) using a time resolved-fluorescence resonance energy transfer (TR-FRET) assay. It uses an antibody labelled europium chelate donor, W-1024 (Eu) and Streptavidin-Surelight APC acceptor (APC). When in close proximity, the excitation of Eu at 330 nm leads to energy transfer to APC with emission of light at 665 nm,
Assay Protocol • 1. A 10 mM test compound was dissolved in 100% DMSO and serially diluted 1 in 4. […]

IC50	SMILES
≤ 100 nM	CCOc1nc(Nc2cnn(C3CCCC3(C)O)c2C)nc2[nH]ccc12 (single isomer, unassigned) [Example E78, trans-2-(4-((4-ethoxy-7H-pyrrolo-[2,3-d]pyrimidin-2-yl)amino)-5-methyl-1H-pyrazol-1-yl)-1-methylcyclopentanol]
≤ 100 nM	CCOc1nc(Nc2cn(C3CCN(C)CC3)nc2C)nc2[nH]ccc12 [Example E19, 4-ethoxy-N-(3-methyl-1-(1-methylpiperidin-4-yl)-1H-pyrazol-4-yl)-7H-pyrrolo-[2,3-d]-pyrimidin-2-amine]
≤ 100 nM	Cc1c(Nc2nc(OCC3CC3)c3cn[nH]c3n2)cnn1CC(C)(C)O [Example E24, 1-(4-((4-(cyclopropylmethoxy)-1H-pyrazolo-[3,4-d]-pyrimidin-6-yl)amino)-5-methyl-1H-pyrazol-1-yl)-2-methylpropan-2-ol]
